Measured values as given in patent US7998940B2, “Aptamers to von Willebrand factor and their use as thrombotic disease therapeutics” (Archemix Corp., priority 2004, dated 2011).
“Also recorded” adds a separate entry of the source. [invdT] = inverted (3'-3') thymidine; d = 2'-deoxy (DNA); m = 2'-O-methyl

Tests used:
[1] = pharmacokinetics of ARC1779 after 0.5 mg/kg IV bolus in cynomolgus macaques (HPLC); type: in vivo; conditions: 0.5 mg/kg single IV bolus, 2-compartment analysis
Method: -PK/PD correlation of ARC1779 was evaluated in three cynomolgus macaques after a single intravenous (IV) bolus dose at 0.5 mg/kg. ARC1779 levels in the plasma were correlated to PD effects of ARC1779 in inhibition of platelet function or prolongation of cutaneous bleeding time (CBT).
(§1) Following IV administration, blood was collected percutaneously at various time points post-dose for PK and PD analysis. PD effect of ARC1779 on platelet function was determined by PFA-100 assays and effect of ARC1779 on bleeding was measured by CBT time. In addition, plasma samples were analyzed by HPLC for quantitation of ARC1779 levels. PK parameter estimates were determined by 2-compartment analysis.

platelet function = assay: ex vivo PFA-100 platelet function after 0.5 mg/kg IV bolus in cynomolgus macaques; conditions: 0.5 mg/kg single IV bolus
Method: as §1
(§2) C. macaques were dosed at 0.5 mg/kg IV bolus with ARC1779 (SEQ ID NO 320). PFA-100 closure time, BIPA and cutaneous bleeding time (“CBT”) were all measured as a function of time throughout the studies. BIPA and PFA-100 closure times were measured as described in previously in Example 3. Cutaneous bleeding times were measured using standard protocols described as follows.

[2] = cutaneous bleeding time (CBT) in cynomolgus macaques; type: in vivo; conditions: in words
Method: as §1, §2
A blood pressure cuff was applied to the biceps region of the forearm to be tested and inflated to maintain a constant pressure of 40 mmHg. Using a Surgicutt® Automated Incision Device (ITC, Edison, N.J.), a longitudinal incision was made over the lateral aspect of the volar surface of the forearm distal to the antecubital crease. A stopwatch was started at the time of incision. […] Bleeding time is determined to within 30 seconds of the time when blood is no longer wicked onto the paper. […]

[3] = tested on: vWF dependent platelet plug formation, cynomolgus whole blood; assay: PFA-100 assay, cynomolgus macaque whole blood; type: cell-based, cynomolgus macaques; conditions: minimum concentration that extends closing time to 300 seconds
From the text: Another assay of this Example, using the PFA-100 instrument, is an agonist independent but vWF dependent assay that uses the PFA-100 instrument (Harrison et al., Clin. Lab. Haem., v24, p 225-32 (2002)). The PFA-100 simulates the formation of a hemostatic plug under conditions of high shear force in vivo by recording the time required for a platelets to aggregate and block the flow of citrated whole blood through a microscopic aperture in a membrane coated with collagen and either epinephrine or ADP. This activity is von Willebrand factor dependent as high MW vWF multimers bind to immobilized collagen on the membrane and then bind to and activate platelets because of the shear force induced by drawing the blood through the microscopic aperture.
Fresh whole blood was collected from healthy non-steroidal anti-inflammatory drug (NSAID) free cynomolgus macaques. […]
In order to assay the titration of aptamer in whole blood, the aptamer was added to no-additive vacutainer tubes and diluted to the desired concentrations (ex: 0 nM, 1 nM to 1000 nM) using physiological saline such that the final volume was […]. When the PFA-100 was ready to run the next set of samples, 1940 μl of whole blood was added to the tube containing a concentration of aptamer. […] The time of occlusion of the aperture was measured by the PFA-100, with a maximal time of 300 seconds. […]

[4] = tested on: ADP induced platelet aggregation; assay: ADP Induced Platelet Aggregation (AIPA) in human PRP; type: cell-based; conditions: in words, 10 micromolar ADP
Method: Another assay of this Example used ADP to induce platelet aggregation.
AIPA was performed with human PRP exactly as was done for BIPA described above in Example 3C with the exception that instead of adding botrocetin, 10 micromolar ADP (Chronolog, Haverton, Pa.) was added to induce platelet aggregation.

vWF = vWF (Homo sapiens, UniProt P04275, D1472H/Q852R/T1381A); assay: cellular / biological vWF dependent assays of Example 3, not specified further; type: cell-based; conditions: in words; FACS, BIPA (and PFA-100) assays of Example 3
Chain of vWF (P04275 764-2813 Q852R/T1381A/D1472H): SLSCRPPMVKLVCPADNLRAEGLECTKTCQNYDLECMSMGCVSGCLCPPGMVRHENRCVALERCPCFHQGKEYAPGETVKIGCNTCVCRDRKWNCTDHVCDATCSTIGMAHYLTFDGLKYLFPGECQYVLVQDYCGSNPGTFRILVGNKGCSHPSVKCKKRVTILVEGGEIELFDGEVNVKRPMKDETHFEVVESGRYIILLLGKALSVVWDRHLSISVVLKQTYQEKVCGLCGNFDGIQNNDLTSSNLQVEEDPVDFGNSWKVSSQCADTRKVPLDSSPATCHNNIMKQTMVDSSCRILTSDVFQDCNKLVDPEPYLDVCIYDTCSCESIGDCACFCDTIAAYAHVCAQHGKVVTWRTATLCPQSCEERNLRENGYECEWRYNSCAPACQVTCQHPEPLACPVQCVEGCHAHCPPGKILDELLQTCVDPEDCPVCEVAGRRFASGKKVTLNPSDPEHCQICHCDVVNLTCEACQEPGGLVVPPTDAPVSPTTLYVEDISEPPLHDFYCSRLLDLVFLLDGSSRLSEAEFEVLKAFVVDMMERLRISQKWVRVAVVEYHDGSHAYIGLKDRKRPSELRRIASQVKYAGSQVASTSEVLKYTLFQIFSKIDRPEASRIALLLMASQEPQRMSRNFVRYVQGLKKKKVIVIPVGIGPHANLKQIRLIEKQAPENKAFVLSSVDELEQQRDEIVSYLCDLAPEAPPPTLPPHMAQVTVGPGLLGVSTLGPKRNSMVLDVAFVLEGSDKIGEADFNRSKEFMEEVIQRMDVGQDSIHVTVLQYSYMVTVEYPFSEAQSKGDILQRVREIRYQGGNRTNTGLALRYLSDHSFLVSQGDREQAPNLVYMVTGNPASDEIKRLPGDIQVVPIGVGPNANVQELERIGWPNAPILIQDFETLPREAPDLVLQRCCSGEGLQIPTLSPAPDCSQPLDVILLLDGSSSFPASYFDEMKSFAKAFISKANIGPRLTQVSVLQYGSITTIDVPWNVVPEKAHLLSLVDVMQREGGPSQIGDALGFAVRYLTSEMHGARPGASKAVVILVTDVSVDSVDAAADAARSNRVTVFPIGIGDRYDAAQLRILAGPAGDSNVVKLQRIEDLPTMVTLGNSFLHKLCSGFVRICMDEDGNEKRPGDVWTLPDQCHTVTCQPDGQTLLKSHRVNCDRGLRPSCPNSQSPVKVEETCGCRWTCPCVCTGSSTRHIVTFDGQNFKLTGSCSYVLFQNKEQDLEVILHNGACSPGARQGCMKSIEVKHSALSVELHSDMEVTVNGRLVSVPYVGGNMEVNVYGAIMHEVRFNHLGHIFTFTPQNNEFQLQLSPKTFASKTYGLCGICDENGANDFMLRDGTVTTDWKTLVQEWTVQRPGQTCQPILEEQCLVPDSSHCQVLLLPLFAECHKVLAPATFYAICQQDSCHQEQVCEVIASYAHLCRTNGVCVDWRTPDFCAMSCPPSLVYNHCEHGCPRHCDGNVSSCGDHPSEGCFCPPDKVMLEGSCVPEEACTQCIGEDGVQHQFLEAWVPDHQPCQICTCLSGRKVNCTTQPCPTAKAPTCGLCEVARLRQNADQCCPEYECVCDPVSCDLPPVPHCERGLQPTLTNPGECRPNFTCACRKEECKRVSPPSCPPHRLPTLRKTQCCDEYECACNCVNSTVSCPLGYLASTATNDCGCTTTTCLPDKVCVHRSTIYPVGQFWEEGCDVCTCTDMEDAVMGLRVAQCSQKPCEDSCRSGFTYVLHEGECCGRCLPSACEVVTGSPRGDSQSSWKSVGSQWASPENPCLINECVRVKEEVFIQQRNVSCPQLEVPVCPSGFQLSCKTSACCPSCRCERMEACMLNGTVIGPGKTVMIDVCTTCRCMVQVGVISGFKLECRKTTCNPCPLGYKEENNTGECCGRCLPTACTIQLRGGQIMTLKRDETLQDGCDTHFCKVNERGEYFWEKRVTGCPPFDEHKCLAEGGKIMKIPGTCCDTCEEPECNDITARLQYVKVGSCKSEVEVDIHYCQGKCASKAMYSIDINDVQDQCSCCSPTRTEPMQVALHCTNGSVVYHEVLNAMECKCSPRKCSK
From the text: The effectiveness of various aptamers in blocking vWF function in several biological assays is described in this Example.
In one assay botrocetin is used. Botrocetin, a protein isolated from snake venom, is known to induce von Willebrand Factor binding to the gpib receptor on live and fixed platelets. This reaction causes agglutination of suspensions of fixed platelets via vWF multimerization. In preparations of platelet rich plasma (hereinafter “PRP”), vWF/botrocetin induction of agglutination is followed by a second phase of platelet aggregation caused by metabolic activation of the platelets. These two reactions: vWF binding to fixed platelets and vWF mediated platelet aggregation, can be used to measure the activity of aptamers of the invention.

Molecule: PEG20K-NH2-mGmCmGmUdGdCdAmGmUmGmCmCmUmUmCmGmGmCdCmG-s-TmGdCdGdGTmGmCdCmUdCdCmGmUdCmAmCmGmC-3T [ARC1779]
- distribution half-life (t1/2α) [1]: approximately 1.0 hour
- plasma concentration at which platelet function returned to normal (PFA-100) (platelet function): approximately 77 nM
- effect on cutaneous bleeding time ([2]; 0.5 mg/kg single IV bolus, 0.5 mg/kg): minimal effect; also recorded: very little increase
- cutaneous bleeding time in the electrolytic thrombosis model ([2]; FIG. 34, various doses and time points): at some doses and/or time points in this animal model prolonged CBT was observed, while at other doses and time points CBT was not prolonged

Molecule: mGmCmGmUdGdCdAmGmUmGmCmCmUmUmCmGmGmCdCmG-s-TmGdCdGdGTmGmCdCmUdCdCmGmUdCmAmCmGmC-3T (GCGUGCAGUGCCUUCGGCCGTGCGGTGCCUCCGUCACGC; sugars from the 5' end mmmmdddmmmmmmmmmmmdmdmddddmmdmddmmdmmmm, [invdT] at 3' end, backbone not given here) [ARC1368]
- ~IC95 PFA-100 (nM) with citrated C. macaque whole blood [3]: ~100 nM
- ability to block AIPA [4]: no ability to block AIPA

B1: AMX237.G6: DNA SELEX 2 aptamer clone (nucleic acid)
DNA: CTACCTACGATCTGACTAGCGTGCAGTGCCTATTCCAGGCCGTGCGGTGCCTCCGTCACGCTTACTCTCATGTAGTTCC
modifications: DNA, backbone and methylation of C not given here
notes: DNA SELEX 2 aptamer clone
- activity in the cellular / biological assays (vWF): slightly more potent
